Test results taken from patent US7875620B2, “Methods of treating microbial infections” (Piper Medical, Inc., priority 2005, dated 2011).

How the values were obtained:
Assay in all cases: Growth inhibition on agar plates, crystalline material swabbed on
Type in all cases: cell-based
Escherichia coli = conditions: agar plate containing Escherichia coli
Excerpt: (§1) A chalky, white substance presumptively identified as monosodium urate monohydrate crystals was extracted from the subcutaneous area of an elbow of a patient presenting with a soft tissue gouty tophus at the elbow. […] The crystalline substance was swabbed onto agar plates containing Staphylococcus aureus, Staphylococcus pyogenes, Neisseria meningitis, Neisseria gonorrhorea, Escherichia coli, Methicillin resistant Staphylococcus aureus, Haemophilus influenza or Serratia Marcessens. The crystalline material inhibited the growth of the microorganisms as indicated below in Table 1.

Haemophilus influenza = conditions: agar plate containing Haemophilus influenza
Excerpt: as §1

[1] = test system: Methicillin resistant Staphylococcus aureus; conditions: agar plate containing Methicillin resistant Staphylococcus aureus
Excerpt: as §1

Neisseria gonorrhorea = conditions: agar plate containing Neisseria gonorrhorea
Excerpt: as §1

Neisseria meningitis = conditions: agar plate containing Neisseria meningitis
Excerpt: as §1

Serratia Marcessens = conditions: agar plate containing Serratia Marcessens
Excerpt: as §1

Staphylococcus aureus = test system: Staphylococcus aureus
Excerpt: as §1

Staphylococcus pyogenes = conditions: agar plate containing Staphylococcus pyogenes
Excerpt: as §1

O.O=c1[n-]c2c(=O)[nH]c(=O)[nH]c2[nH]1.[Na+] [Monosodium Urate Monohydrate, monosodium urate monohydrate]
Antimicrobial activity (growth inhibition) (Escherichia coli): Did not inhibit growth
Antimicrobial activity (growth inhibition) (Haemophilus influenza): Did not inhibit growth
Antimicrobial activity (growth inhibition) [1]: Did not inhibit growth
Antimicrobial activity (growth inhibition) (Neisseria gonorrhorea): Inhibited growth
Antimicrobial activity (growth inhibition) (Neisseria meningitis): Inhibited growth
Antimicrobial activity (growth inhibition) (Serratia Marcessens): Did not inhibit growth
bacteriocidal activity (Staphylococcus aureus; against S. aureus): exhibited bacteriocidal activity
Antimicrobial activity (growth inhibition) (Staphylococcus aureus; agar plate containing Staphylococcus aureus): Inhibited growth
Antimicrobial activity (growth inhibition) (Staphylococcus pyogenes): Inhibited growth
